The results in this text go back to patent US11725037B2, “Peptide dual agonists of GIPR and GLP2R” (University of Copenhagen, priority 2017, dated 2023).

The target of test [1] is T1, human GIP receptor (Homo sapiens, UniProt P48546).
T1 construct: host or cells: COS-7 (transient, calcium phosphate; pCMV-Script vector)
T1 sequence (P48546 22-466): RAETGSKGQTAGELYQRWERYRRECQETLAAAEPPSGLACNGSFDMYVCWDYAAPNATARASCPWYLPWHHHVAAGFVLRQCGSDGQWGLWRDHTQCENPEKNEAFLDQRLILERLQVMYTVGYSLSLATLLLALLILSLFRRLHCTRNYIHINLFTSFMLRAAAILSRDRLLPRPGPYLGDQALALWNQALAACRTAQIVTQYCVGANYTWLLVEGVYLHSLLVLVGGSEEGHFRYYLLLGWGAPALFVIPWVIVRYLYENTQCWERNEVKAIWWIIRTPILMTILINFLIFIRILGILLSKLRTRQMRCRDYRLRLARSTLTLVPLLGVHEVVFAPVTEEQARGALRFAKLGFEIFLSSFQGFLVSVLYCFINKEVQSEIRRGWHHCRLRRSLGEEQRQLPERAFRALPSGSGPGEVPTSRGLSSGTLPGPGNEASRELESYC
Briefly: cAMP accumulation assay (HitHunter cAMP XS) in transiently transfected COS-7 cells expressing the human GIP receptor. The class given is cell-based. Particulars: for Emax at 10 µM: COS-7, read-out: Emax (10 μM), GIP receptor; for fold (fold change of native GIP), GIP receptor: EC50 relative to native GIP; for Emax at 1 µM: COS-7, read-out: Emax, GIP receptor. On the procedure:
(§1) The day after, the cells were washed twice with Hepes buffered saline (HBS) buffer and incubated with HBS and 1 mM 3-isobutyl-1-methylxanthine (IBMX) for 30 min at 37° C. Ligands were added and incubated for 30 min at 37° C. The HitHunter™ cAMP XS assay (DiscoveRx) was carried out according to the manufacturer's instructions.
On the technique in general: Changes in cAMP serve as a functional read-out for many G protein-coupled receptors.

Test [2] deals with T2, human GLP-2 receptor (Homo sapiens, UniProt O95838).
T2 construct: host or cells: COS-7 (transient, calcium phosphate; pCMV-Script vector)
T2 sequence (O95838 1-553): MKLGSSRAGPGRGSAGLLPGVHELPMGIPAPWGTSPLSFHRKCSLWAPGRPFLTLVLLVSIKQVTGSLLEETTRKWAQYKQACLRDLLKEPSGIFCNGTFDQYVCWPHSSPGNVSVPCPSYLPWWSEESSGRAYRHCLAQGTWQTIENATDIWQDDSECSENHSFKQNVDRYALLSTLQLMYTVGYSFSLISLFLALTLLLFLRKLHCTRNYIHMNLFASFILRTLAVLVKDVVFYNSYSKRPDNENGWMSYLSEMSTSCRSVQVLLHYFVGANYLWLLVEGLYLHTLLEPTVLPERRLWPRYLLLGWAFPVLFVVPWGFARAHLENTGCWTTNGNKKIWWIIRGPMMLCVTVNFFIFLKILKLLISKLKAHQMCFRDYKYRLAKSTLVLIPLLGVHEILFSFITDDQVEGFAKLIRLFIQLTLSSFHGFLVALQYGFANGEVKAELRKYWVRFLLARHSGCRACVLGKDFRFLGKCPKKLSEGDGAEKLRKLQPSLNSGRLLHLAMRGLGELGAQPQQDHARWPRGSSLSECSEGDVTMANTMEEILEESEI
Put plainly: cAMP accumulation assay (HitHunter cAMP XS) in transiently transfected COS-7 cells expressing the human GLP-2 receptor. The class given is cell-based. Particulars: for Emax at 10 µM: COS-7, read-out: Emax (10 μM), GLP-2 receptor; for fold (fold change of native GLP-2), GLP-2 receptor: EC50 relative to native GLP-2; for Emax at 1 µM: COS-7, read-out: Emax, GLP-2 receptor. The method, then:
as §1

The mark [3] stands for this setting: logEC50, GLP-2 receptor, Table 2, cAMP, COS-7.
Where [4] appears, read: logEC50, GIP receptor, Table 1, log value, cAMP, COS-7.
Setting [5] is: logEC50, GLP-2 receptor, Table 1, cAMP, COS-7.
Where [6] appears, read: logEC50, GIP receptor, Table 2, log value, cAMP, COS-7.

Read-outs that look alike come from different tables or passages of the source. Ends that are not written are not given here.

In the case of `CCCCCCCCCCCCCCCC(=O)NCCCC[C@H](NC(=O)CNC(=O)[C@H](CCCCN)NC(=O)[C@@H](NC(=O)[C@H](CCC(N)=O)NC(=O)[C@@H](NC(=O)[C@H](CC(C)C)NC(=O)[C@H](Cc1c[nH]c2ccccc12)NC(=O)[C@H](CC(N)=O)NC(=O)[C@@H](NC(=O)[C@H](Cc1ccccc1)NC(=O)[C@H](CC(=O)O)NC(=O)[C@H](CCCNC(=N)N)NC(=O)[C@H](C)NC(=O)[C@H](C)NC(=O)[C@H](CC(C)C)NC(=O)[C@H](CC(N)=O)NC(=O)[C@H](CC(=O)O)NC(=O)[C@H](CC(C)C)NC(=O)[C@@H](NC(=O)[C@@H](NC(=O)[C@H](CO)NC(=O)[C@H](Cc1ccc(O)cc1)NC(=O)[C@H](CC(=O)O)NC(=O)[C@H](CO)NC(=O)[C@@H](NC(=O)[C@H](Cc1ccccc1)NC(=O)[C@@H](NC(=O)CNC(=O)[C@H](CC(=O)O)NC(=O)[C@H](C)NC(=O)[C@@H](N)Cc1c[nH]cn1)[C@@H](C)O)[C@@H](C)CC)[C@@H](C)O)[C@@H](C)CC)[C@@H](C)CC)[C@@H](C)CC)[C@@H](C)O)C(=O)N[C@@H](CCCCN)C(=O)O` [Co-agonist 36], the Emax (in general, the maximal effect, on the per cent scale that the assay sets) at 10 µM was 100% in test [1] and 71% in test [2]. Also, the “fold (fold change of native GIP), GIP receptor” value (“fold (fold change of native GIP)” for short) in test [1] (Table 2) is on record as 8.9 fold. Besides, the “fold (fold change of native GLP-2), GLP-2 receptor” value in test [2] (Table 2) came to 17 fold. The EC50 (in general, the midpoint of the concentration-response curve) in test [2] (setting [3]) is 20 nM.
On to “HADGTFIDDYSTILDNLAARDFINWLIQTKITD [Co-agonist 14]”, for which the maximum response (Emax) at 10 µM in test [1] came out at 94%; in test [2] it was 90%. Further, the “fold (fold change of native GIP)” value in test [1] (Table 1) is given as 27 fold. In addition, the EC50 in test [1] (setting [4]) was 2.34 nM; in test [2] (setting [5]), 10.7 nM. Further, the “fold (fold change of native GLP-2), GLP-2 receptor” value in test [2] (Table 1) came out at 9.2 fold.
Regarding “HADGTFISDYSKILDNLAARDFINWLIQTKITK [Co-agonist 24]”, the maximal response (Emax) at 10 µM is 100% in test [1] and 96% in test [2]. Moreover, the “fold (fold change of native GIP)” value in test [1] (Table 2) turned out to be 1.7 fold. This compound gave an EC50 in test [1] (setting [6]) of 0.151 nM. For the same compound, in test [2] (Table 2), the “fold (fold change of native GLP-2), GLP-2 receptor” value worked out at 0.62 fold.
As for “HADGTFISDYSTIKDNLAARDFINWLIQTKITK [Co-agonist 25]”, the maximal response (Emax) at 10 µM in test [1] and in test [2] was 92% in each case. Besides, the “fold (fold change of native GIP)” value in test [1] (Table 2) came to 4.9 fold. Also, in test [2] (Table 2), the “fold (fold change of native GLP-2), GLP-2 receptor” value amounted to 2.9 fold. The same compound had an EC50 in test [2] (setting [3]) of 3.47 nM.
For the compound “HADGTFISDYSTILDKLAARDFINWLIQTKITK [Co-agonist 26]”, the Emax at 10 µM in test [1] and in test [2] was 100% in each case. For the same compound, in test [1] (Table 2), the “fold (fold change of native GIP)” value stood at 0.34 fold. Also, the EC50 in test [1] (setting [6]) was 0.0302 nM; in test [2] (setting [3]), 0.309 nM. Also, in test [2] (Table 2), the “fold (fold change of native GLP-2), GLP-2 receptor” value came out at 0.26 fold.
“HADGTFISDYSTILDNLAARDFINWLIQTKGKKNDWKHNITQ [Co-agonist 34]”: the Emax at 10 µM was determined as 100% in test [1] and 94% in test [2]. This compound gave an EC50 in test [2] (setting [3]) of 1.15 nM.
With “HADGTFISDYSTILDNLAARDFINWLIQTKGTD [Co-agonist 16]”, the figures for the Emax at 10 µM in test [1] and in test [2] were 95% and 74%, respectively. Moreover, in test [1] (Table 1), the “fold (fold change of native GIP)” value was determined as 6.7 fold. Moreover, the “fold (fold change of native GLP-2), GLP-2 receptor” value in test [2] (Table 1) came out at 68 fold. For the same compound, in test [2] (setting [5]), it took 87.1 nM to reach a half-maximal effect (EC50).
The corresponding values for “HADGTFISDYSTILDNLAARDFINWLIQTKIKD [Co-agonist 17]” are 95%, 88%, 4.5 fold, 21 fold and 24.5 nM.
On to “HADGTFISDYSTILDNLKARDFINWLIQTKITK [Co-agonist 27]”, for which the Emax at 10 µM in test [1] and in test [2] was 100% in each case. Further, the “fold (fold change of native GIP)” value in test [1] (Table 2) is 6.2 fold. The “fold (fold change of native GLP-2), GLP-2 receptor” value in test [2] (Table 2) amounted to 0.47 fold.
As for “HADGTFISEYSTILDNLAARDFINWLIQTKITD [Co-agonist 15]”, the Emax at 10 µM is 92% in test [1] and 104% in test [2]. Also, the “fold (fold change of native GIP)” value in test [1] (Table 1) is given as 36 fold. The compound also had an EC50 in test [1] (setting [4]) of 3.16 nM. Further, the “fold (fold change of native GLP-2), GLP-2 receptor” value in test [2] (Table 1) is given as 5.6 fold.
Take “HADGTFSSDYSTILDNLAAKDFINWLIQTKITD [Co-agonist 20]”: the maximal effect (Emax) at 10 µM came to 98% in test [1] and 80% in test [2].
In the case of “HADGTFSSDYSTILDNLAARDFINWLIQTKITD [Co-agonist 13]”, the maximal effect (Emax) at 10 µM in test [1] was 91%; in test [2], 99%. Moreover, the “fold (fold change of native GIP)” value in test [1] (Table 1) is 135 fold. Besides, the EC50 in test [1] (setting [4]) is 12 nM; in test [2] (setting [5]), 11.2 nM. Further, the “fold (fold change of native GLP-2), GLP-2 receptor” value in test [2] (Table 1) came out at 9.2 fold.
For “HAEGSFISDYSTILDNLAARDFINWLIQTKITD [Co-agonist 4]”, the Emax at 10 µM in test [1] is 83%; in test [2], 90%. The “fold (fold change of native GIP)” value in test [1] (Table 1) amounted to 427 fold. The EC50 in test [1] (setting [4]) is 38 nM; in test [2] (EC50(nM), GLP-2 receptor, Table 1, cAMP, COS-7) it was 25 nM; in test [2] (setting [5]), 25.7 nM. Further, in test [2] (Table 1), the “fold (fold change of native GLP-2), GLP-2 receptor” value was found to be 21 fold.
With “HAEGTFISDMNTILDNLAARDFINWLIQTKITD [Co-agonist 6]”, the results for the maximum response (Emax) at 10 µM in test [1] and in test [2] were 83% and 70%, respectively. Also, the “fold (fold change of native GIP)” value in test [1] (Table 1) was determined as 1933 fold. Also, the “fold (fold change of native GLP-2), GLP-2 receptor” value in test [2] (Table 1) is reported as 50 fold.
Compound “HAEGTFISDYSIAMDKLAARDFINWLIQTKITD [Co-agonist 7]” gave an EC50 in test [1] of 25.7 nM. Further, the Emax at 10 µM in test [1] is 92%; in test [2] it was 78%. Besides, the “fold (fold change of native GIP)” value in test [1] (Table 1) worked out at 292 fold. In addition, the “fold (fold change of native GLP-2), GLP-2 receptor” value in test [2] (Table 1) worked out at 293 fold.
As to “HAEGTFISDYSTILDNIHQQDFINWLIQTKITD [Co-agonist 8]”, the maximum response (Emax) at 10 µM in test [1] was determined as 100%. The “fold (fold change of native GIP)” value in test [1] (Table 1) is given as 66 fold. In test [2], the EC50 was more than 10000 nM and the maximal effect (Emax) at 10 µM worked out at 22%.
Regarding “HAEGTFISDYSTILDNLAARDFINWLIQTKGKK [Co-agonist 10]”, the Emax at 10 µM in test [1] was found to be 100%. The “fold (fold change of native GIP)” value in test [1] (Table 1) stood at 61 fold. In test [2], it took 21.9 nM to reach a half-maximal effect (EC50) and the Emax at 10 µM worked out at 77%. Besides, the “fold (fold change of native GLP-2), GLP-2 receptor” value in test [2] (Table 1) worked out at 18 fold.
The compound “HAEGTFISDYSTILDNLAARDFINWLIQTKITD [Co-agonist 1]” showed an EC50 in test [1] of 29.5 nM. Also, the maximal effect (Emax) at 1 µM in test [1] came out at 100%; in test [2], 93%. For the same compound, the “fold (fold change of native GIP)” value in test [1] (Table 1) is 337 fold. Moreover, the “fold (fold change of native GLP-2), GLP-2 receptor” value in test [2] (Table 1) came to 82 fold.
The like results for “HAEGTFISDYSTILDNLAARDFINWLIQTKITDNDWKHNITQ [Co-agonist 2]” were, in that order, 12 nM, 100%, 93%, 135 fold and 121 fold.
Regarding “HAEGTFISDYSTILDNLAARDFVNWLLAQKITD [Co-agonist 9]”, in test [1], the EC50 is 3.16 nM and the maximal response (Emax) at 10 µM is 100%. In test [1] (Table 1), the “fold (fold change of native GIP)” value was determined as 36 fold. In addition, the Emax at 10 µM in test [2] stood at 67%. Moreover, in test [2] (Table 1), the “fold (fold change of native GLP-2), GLP-2 receptor” value was 103 fold.
